Tested on: plants
Test: Test D pre-emergence, other plants of Tables D1 and D3
Type: in vivo
Conditions: for damage to plant (100=total damage to plant; 0=no damage to plant), BIDPI / damage to plant (100=total damage to plant; 0=no damage to plant), BRAPL / damage to plant (100=total damage to plant; 0=no damage to plant), CYPES / damage to plant (100=total damage to plant; 0=no damage to plant), EPHHL / damage to plant (100=total damage to plant; 0=no damage to plant), GLXMA / damage to plant (100=total damage to plant; 0=no damage to plant), IPOHE / damage to plant (100=total damage to plant; 0=no damage to plant), SORVU / ABUTH damage to plant (100=total damage; 0=no damage) / AMARE damage to plant (100=total damage; 0=no damage) / DIGSA damage to plant (100=total damage; 0=no damage) / ECHCG damage to plant (100=total damage; 0=no damage) / ORYSA damage to plant (100=total damage; 0=no damage) / PANMI damage to plant (100=total damage; 0=no damage) / SETFA damage to plant (100=total damage; 0=no damage): preemergent; for damage to plant (100=total damage to plant; 0=no damage to plant), BIDPI / damage to plant (100=total damage to plant; 0=no damage to plant), BRAPL / CHEAL damage rating / damage to plant (100=total damage to plant; 0=no damage to plant), CYPES / damage to plant (100=total damage to plant; 0=no damage to plant), EPHHL / GALAP damage rating / damage to plant (100=total damage to plant; 0=no damage to plant), GLXMA / damage to plant (100=total damage to plant; 0=no damage to plant), IPOHE / KCHSC damage rating / LOLPE damage rating / POAAN damage rating / damage to plant (100=total damage to plant; 0=no damage to plant), SORVU / STEME damage rating / VERPE damage rating: 20 DAA; for CHEAL damage rating / GALAP damage rating / KCHSC damage rating / LOLPE damage rating / POAAN damage rating / STEME damage rating / VERPE damage rating / damage to plant, ALOMY / damage to plant, AVEFA / damage to plant, BEAVA / damage to plant, BROTE / damage to plant, BRSNN / damage to plant, HORVW / damage to plant, SINAR: pre-emergence, 100=total damage, 0=no damage
Outline: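 Seeds treated with herbicide safener; sown in soil; glasshouse, 16 h light, 65% humidity. Sprayed day 1 (pre) or ~day 12 (post). Spray in 0.2% v/v adjuvant. Scored 0–100 damage: 20 DAA pre, 15 d post.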

## CN1CC(c2cnn(C)c2C(F)(F)F)C(C(=O)Nc2cccc(F)c2F)C1=O (racemic) [Compound 25]
Rate 15
  damage to plant (100=total damage to plant; 0=no damage to plant), BIDPI: 0
  damage to plant (100=total damage to plant; 0=no damage to plant), BRAPL: 0
  damage to plant (100=total damage to plant; 0=no damage to plant), CYPES: 0
  damage to plant (100=total damage to plant; 0=no damage to plant), EPHHL: 0
  damage to plant (100=total damage to plant; 0=no damage to plant), GLXMA: 0
  damage to plant (100=total damage to plant; 0=no damage to plant), IPOHE: 0
  damage to plant (100=total damage to plant; 0=no damage to plant), SORVU: 0
Rate 30
  damage to plant (100=total damage to plant; 0=no damage to plant), BIDPI: 0
  damage to plant (100=total damage to plant; 0=no damage to plant), BRAPL: 0
  damage to plant (100=total damage to plant; 0=no damage to plant), CYPES: 0
  damage to plant (100=total damage to plant; 0=no damage to plant), EPHHL: 0
  damage to plant (100=total damage to plant; 0=no damage to plant), GLXMA: 0
  damage to plant (100=total damage to plant; 0=no damage to plant), IPOHE: 0
  damage to plant (100=total damage to plant; 0=no damage to plant), SORVU: 0
Rate 60
  damage to plant (100=total damage to plant; 0=no damage to plant), BIDPI: 0
  damage to plant (100=total damage to plant; 0=no damage to plant), BRAPL: 30
  damage to plant (100=total damage to plant; 0=no damage to plant), CYPES: 0
  damage to plant (100=total damage to plant; 0=no damage to plant), EPHHL: 0
  damage to plant (100=total damage to plant; 0=no damage to plant), GLXMA: 0
  damage to plant (100=total damage to plant; 0=no damage to plant), IPOHE: 0
  damage to plant (100=total damage to plant; 0=no damage to plant), SORVU: 0
Rate 130
  damage to plant (100=total damage to plant; 0=no damage to plant), BIDPI: 0
  damage to plant (100=total damage to plant; 0=no damage to plant), BRAPL: 80
  damage to plant (100=total damage to plant; 0=no damage to plant), CYPES: 0
  damage to plant (100=total damage to plant; 0=no damage to plant), EPHHL: 0
  damage to plant (100=total damage to plant; 0=no damage to plant), GLXMA: 0
  damage to plant (100=total damage to plant; 0=no damage to plant), IPOHE: 0
  damage to plant (100=total damage to plant; 0=no damage to plant), SORVU: 0
Rate 250
  damage to plant (100=total damage to plant; 0=no damage to plant), BIDPI: 0
  damage to plant (100=total damage to plant; 0=no damage to plant), BRAPL: 90
  damage to plant (100=total damage to plant; 0=no damage to plant), CYPES: 0
  damage to plant (100=total damage to plant; 0=no damage to plant), EPHHL: 0
  damage to plant (100=total damage to plant; 0=no damage to plant), GLXMA: 0
  damage to plant (100=total damage to plant; 0=no damage to plant), IPOHE: 0
  damage to plant (100=total damage to plant; 0=no damage to plant), SORVU: 0
Rate 500
  damage to plant (100=total damage to plant; 0=no damage to plant), BIDPI: 0
  damage to plant (100=total damage to plant; 0=no damage to plant), BRAPL: 90
  damage to plant (100=total damage to plant; 0=no damage to plant), CYPES: 0
  damage to plant (100=total damage to plant; 0=no damage to plant), EPHHL: 0
  damage to plant (100=total damage to plant; 0=no damage to plant), GLXMA: 0
  damage to plant (100=total damage to plant; 0=no damage to plant), IPOHE: 0
  damage to plant (100=total damage to plant; 0=no damage to plant), SORVU: 0
Rates 15
  CHEAL damage rating: 0
  GALAP damage rating: 0
  KCHSC damage rating: 0
  LOLPE damage rating: 0
  POAAN damage rating: 0
  STEME damage rating: 0
  VERPE damage rating: 0
Rates 30
  CHEAL damage rating: 0
  GALAP damage rating: 0
  KCHSC damage rating: 0
  LOLPE damage rating: 0
  POAAN damage rating: 0
  STEME damage rating: 0
  VERPE damage rating: 0
Rates 60
  CHEAL damage rating: 0
  GALAP damage rating: 0
  KCHSC damage rating: 0
  LOLPE damage rating: 0
  POAAN damage rating: 0
  STEME damage rating: 0
  VERPE damage rating: 0
Rates 130
  CHEAL damage rating: 0
  GALAP damage rating: 0
  KCHSC damage rating: 0
  LOLPE damage rating: 0
  POAAN damage rating: 0
  STEME damage rating: 0
  VERPE damage rating: 0
Rates 250
  CHEAL damage rating: 20
  GALAP damage rating: 0
  KCHSC damage rating: 0
  LOLPE damage rating: 0
  POAAN damage rating: 0
  STEME damage rating: 0
  VERPE damage rating: 0
Rates 500
  CHEAL damage rating: 50
  GALAP damage rating: 0
  KCHSC damage rating: 0
  LOLPE damage rating: 0
  POAAN damage rating: 0
  STEME damage rating: 50
  VERPE damage rating: 10
Rate 15, 20 DAA
  damage to plant, ALOMY: 0
  damage to plant, AVEFA: 0
  damage to plant, BEAVA: 0
  damage to plant, BROTE: 0
  damage to plant, BRSNN: 0
  damage to plant, HORVW: 0
  damage to plant, SINAR: 0
Rate 30, 20 DAA
  damage to plant, ALOMY: 0
  damage to plant, AVEFA: 0
  damage to plant, BEAVA: 0
  damage to plant, BROTE: 0
  damage to plant, BRSNN: 0
  damage to plant, HORVW: 0
  damage to plant, SINAR: 0
Rate 60, 20 DAA
  damage to plant, ALOMY: 0
  damage to plant, AVEFA: 0
  damage to plant, BEAVA: 0
  damage to plant, BROTE: 0
  damage to plant, BRSNN: 0
  damage to plant, HORVW: 0
  damage to plant, SINAR: 0
Rate 130, 20 DAA
  damage to plant, ALOMY: 0
  damage to plant, AVEFA: 0
  damage to plant, BEAVA: 0
  damage to plant, BROTE: 0
  damage to plant, BRSNN: 0
  damage to plant, HORVW: 0
  damage to plant, SINAR: 0
Rate 250, 20 DAA
  damage to plant, ALOMY: 0
  damage to plant, AVEFA: 0
  damage to plant, BEAVA: 0
  damage to plant, BROTE: 0
  damage to plant, BRSNN: 0
  damage to plant, HORVW: 0
  damage to plant, SINAR: 0
Rate 500, 20 DAA
  damage to plant, ALOMY: 0
  damage to plant, AVEFA: 0
  damage to plant, BEAVA: 0
  damage to plant, BROTE: 10
  damage to plant, BRSNN: 20
  damage to plant, HORVW: 0
  damage to plant, SINAR: 0
Rates 15, 20 DAA
  ABUTH damage to plant (100=total damage; 0=no damage): 0
  AMARE damage to plant (100=total damage; 0=no damage): 0
  DIGSA damage to plant (100=total damage; 0=no damage): 0
  ECHCG damage to plant (100=total damage; 0=no damage): 0
  ORYSA damage to plant (100=total damage; 0=no damage): 0
  PANMI damage to plant (100=total damage; 0=no damage): 0
  SETFA damage to plant (100=total damage; 0=no damage): 0
Rates 30, 20 DAA
  ABUTH damage to plant (100=total damage; 0=no damage): 0
  AMARE damage to plant (100=total damage; 0=no damage): 0
  DIGSA damage to plant (100=total damage; 0=no damage): 60
  ECHCG damage to plant (100=total damage; 0=no damage): 20
  ORYSA damage to plant (100=total damage; 0=no damage): 0
  PANMI damage to plant (100=total damage; 0=no damage): 0
  SETFA damage to plant (100=total damage; 0=no damage): 0
Rates 60, 20 DAA
  ABUTH damage to plant (100=total damage; 0=no damage): 0
  AMARE damage to plant (100=total damage; 0=no damage): 0
  DIGSA damage to plant (100=total damage; 0=no damage): 80
  ECHCG damage to plant (100=total damage; 0=no damage): 60
  ORYSA damage to plant (100=total damage; 0=no damage): 0
  PANMI damage to plant (100=total damage; 0=no damage): 0
  SETFA damage to plant (100=total damage; 0=no damage): 10
Rates 130, 20 DAA
  ABUTH damage to plant (100=total damage; 0=no damage): 0
  AMARE damage to plant (100=total damage; 0=no damage): 0
  DIGSA damage to plant (100=total damage; 0=no damage): 90
  ECHCG damage to plant (100=total damage; 0=no damage): 90
  ORYSA damage to plant (100=total damage; 0=no damage): 0
  PANMI damage to plant (100=total damage; 0=no damage): 0
  SETFA damage to plant (100=total damage; 0=no damage): 60
Rates 250, 20 DAA
  ABUTH damage to plant (100=total damage; 0=no damage): 0
  AMARE damage to plant (100=total damage; 0=no damage): 0
  DIGSA damage to plant (100=total damage; 0=no damage): 90
  ECHCG damage to plant (100=total damage; 0=no damage): 90
  ORYSA damage to plant (100=total damage; 0=no damage): 0
  PANMI damage to plant (100=total damage; 0=no damage): 0
  SETFA damage to plant (100=total damage; 0=no damage): 60
Rates 500, 20 DAA
  ABUTH damage to plant (100=total damage; 0=no damage): 0
  AMARE damage to plant (100=total damage; 0=no damage): 0
  DIGSA damage to plant (100=total damage; 0=no damage): 90
  ECHCG damage to plant (100=total damage; 0=no damage): 90
  ORYSA damage to plant (100=total damage; 0=no damage): 0
  PANMI damage to plant (100=total damage; 0=no damage): 0
  SETFA damage to plant (100=total damage; 0=no damage): 90
